Molecules are shown by their SMILES.

One assay has as its system HRPTEpiC. Description: Cytotoxicity tested by Eurofins Pharma Discovery Services. Conditions: data provided by Eurofins, read-out: IC50. The assay is classed as cell-based.
Assay [1] concerns Hep G2 (ATCC HB-8065) cells. Description: Cytotoxicity, MTT assay. To be noted: Homo sapiens, HepG2, 24 h, Hep G2; MTT, 24 hours incubation; read-out: IC50. Format: cell-based. Summed up: (§1)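 Cells seeded at 5000/well (NIH 3T3) or 10000/well (Hep G2, J774, RAW264.7) in DMEM+10% FBS, incubated overnight, then exposed 24 h to 2-fold serial dilutions (9 concentrations, six replicates each). MTT added for 4 h, formazan dissolved in DMSO, A570 read. Viability expressed as blank-corrected absorbance relative to medium-only control.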

A further assay concerns J774 (ATCC TIB-67) cells. Briefly: Cytotoxicity, MTT assay. The assay is classed as cell-based. Conditions: Mus musculus, MTT, 24 hours incubation, read-out: IC50. Summed up: as §1
Assay [2] has as its system NIH 3T3 (ATCC CRL-1658) cells. Briefly: Cytotoxicity, MTT assay. Format: cell-based. Conditions: Mus musculus, NIH3T3; NIH 3T3; MTT, 24 hours incubation; read-out: IC50. Summed up: as §1
The next assay has as its system E. coli K12 (ATCC 47076). Description: MIC broth microdilution method, Table 3. To be noted: Escherichia coli, ATCC47076.
The subject of assay [3] is E. cloacae 1744299 (ESBL). Briefly: MIC against resistant strains, Tables 5a-5d. The assay is classed as cell-based. Conditions: Enterobacter cloacae, n = 3. Here is the method:
(§2) Compounds described herein were evaluated for growth inhibition against a variety of bacterial species, including strains that have developed resistance to common antibacterial treatments, according to the procedure described herein, or by analogous procedures known to those skilled in the art. Resistant bacterial strains used for compound testing include methicillin-resistant S. aureus (MRSA), vancomycin resistant Enterococci (VRE) and various multi-drug resistant (MDR) strains commonly associated with hospital-acquired (nosocomial) infections, including, but not limited to A. baumannii, K. pnuemoniae, and E. cloacae.

The subject of assay [4] is S. aureus ATCC 33591 (MRSA). Description: MIC against resistant strains, Tables 5a-5d. Format: cell-based. To be noted: Staphylococcus aureus, n = 3. Here is the method: as §2
The test system of assay [5] is P. aeruginosa CDC0248 (MDR). Briefly: MIC against resistant strains, Tables 5a-5d. The assay is classed as cell-based. Conditions: Pseudomonas aeruginosa, n = 3. On the procedure: as §2
For assay [6], the system named is K. pneumoniae CDC0010 (MDR). Description: MIC against resistant strains, Tables 5a-5d. Conditions: Klebsiella pneumoniae, n = 3. Format: cell-based. Here is the method: as §2
The test system of assay [7] is A. baumannii CDC0290 (MDR). Description: MIC against resistant strains, Tables 5a-5d. The assay is classed as cell-based. To be noted: Acinetobacter baumannii, n = 3. Here is the method:
as §2

The subject of assay [8] is S. aureus ATCC BAA-1717 (MRSA). Briefly: MIC against resistant strains, Tables 5a-5d. The assay is classed as cell-based. Conditions: Staphylococcus aureus, n = 3. Here is the method: as §2
Assay [9] concerns K. pneumoniae ATCC BAA-2473 (MDR). Briefly: MIC against resistant strains, Tables 5a-5d. The assay is classed as cell-based. Conditions: Klebsiella pneumoniae, ATCCBAA2473, n = 3. On the procedure: as §2
For assay [10], the system named is A. baumannii 1674627 (MDR). Description: MIC against resistant strains, Tables 5a-5d. To be noted: Acinetobacter baumannii, n = 3. The assay is classed as cell-based. Here is the method:
as §2

The subject of a further assay is E. coli ATCC25922 (WT). Briefly: MIC against resistant strains, Tables 5a-5d. Format: cell-based. To be noted: Escherichia coli, n = 3. Here is the method: as §2
The subject of the next assay is E. faecium 1674620 (VRE). Description: MIC against resistant strains, Tables 5a-5d. Format: cell-based. To be noted: Enterococcus faecium, n = 3. On the procedure: as §2
Assay [11] has as its system P. aeruginosa 1674623 (MDR). Briefly: MIC against resistant strains, Tables 5a-5d. Format: cell-based. Conditions: Pseudomonas aeruginosa, n = 3. Here is the method: as §2

Take `C[N+](C)(C)CCCCOc1cc(/C=C/c2ccc(/C=C/c3cc(OCCCC[N+](C)(C)C)cc(OCCCC[N+](C)(C)C)c3)cc2)cc(OCCCC[N+](C)(C)C)c1.[I-].[I-].[I-].[I-]` [Formula F]: the IC50 with HRPTEpiC was 79.2 µg/mL; in [1], over 1020 µg/mL; with J774 (ATCC TIB-67) cells it was over 128 µg/mL; in [2], over 128 µg/mL. Moreover, the MIC is 32 µg/mL in the assay with E. coli K12 (ATCC 47076); 8 µg/mL in assay [3]; 2 µg/mL in assay [4]; over 64 µg/mL in [5]; 64 µg/mL in [6]; 64 µg/mL in [7]. Further, the MIC in [8] is 2 µg/mL; in assay [9], 32 µg/mL; in assay [10] it was 64 µg/mL; against E. coli ATCC25922 (WT), 8 µg/mL; in the assay with E. faecium 1674620 (VRE), 8 µg/mL; in [11] it was over 64 µg/mL.

Take `CCCCCC[N+](C)(C)CCCCCCOc1cc(/C=C/c2cc(OCCCCCC[N+](C)(C)CCCCCC)cc(OCCCCCC[N+](C)(C)CCCCCC)c2)cc(OCCCCCC[N+](C)(C)CCCCCC)c1` [Formula E]: the IC50 in the assay on HRPTEpiC turned out to be 2.6 µg/mL; in [1], 7.3 µg/mL; with J774 (ATCC TIB-67) cells, 2.5 µg/mL; in [2], 10.4 µg/mL. In addition, the MIC with E. coli K12 (ATCC 47076) turned out to be 4 µg/mL; in assay [3], 2 µg/mL; in assay [4], 0.5 µg/mL; in assay [5], 8 µg/mL; in assay [6], 4 µg/mL; in assay [7], 4 µg/mL. In addition, the minimum inhibitory concentration (MIC) worked out at 0.5 µg/mL in assay [8]; 2 µg/mL in [9]; 4 µg/mL in assay [10]; 1 µg/mL against E. coli ATCC25922 (WT); 0.25 µg/mL with E. faecium 1674620 (VRE); 8 µg/mL in assay [11].

For the origin of these results see patent US11713318B2, “Short conjugated oligoelectrolytes and uses thereof” (The Regents Of The University Of California, priority 2018, dated 2023).
